Test results published in patent publication US11786476B2, “Oral dosage form” (Universiteit Gent, priority 2016, dated 2023).
Structures can show the parent of a compound that is named as a salt.

Assays:
[1] = Powder characteristics of raw materials (particle size and geometry); assay type: physicochemical; settings: raw material powder; for D90: 90% of particles smaller than this diameter
[2] = literature values; cited from earlier work

Compound | D10 [1] [μm] | D50 [1] [μm] | Sphericity [1] | D90 [1] [μm] | aqueous solubility [2] [mg/mL]
CC(=O)Nc1ccc(O)cc1 [Acetaminophen, acetaminophen] | 1.7 | 6.4 | 0.84 | 20.1 | –
COc1cccc(C2(O)CCCCC2CN(C)C)c1 (stereo not drawn) [tramadol] | – | – | – | – | 30 to 100
CN(C)C(=N)N=C(N)N [Metformin · HCl, metformin hydrochloride] | 8.4 | 51.6 | 0.87 | 150.2 | –
